Earlier results on 1 molecule are cited in patent publication US20160175335A1, “ANTIFUNGAL COMBINATION THERAPY OF TAVABOROLE AND EFINACONAZOLE” (priority 2014, published 2016).

The test system of the data set is dermatophytes, yeasts and non-dermatophyte molds. The settings on record: against dermatophytes.

Consider `C=C1CCN([C@H](C)[C@](O)(Cn2cncn2)c2ccc(F)cc2F)CC1` [Efinaconazole, ((2R,3R)-2-(2,4-difluorophenyl)-3-(4-methylenepiperidin-1yl)-1-(1H-1,2,4-triazol-1-yl)butan-2-ol)], for which the “effectiveness in vitro compared with other antifungal agents” value is “more effective in vitro than terbinafine, itraconazole, ciclopirox and amorolfine”.
